Values of other authors, collected in article PMC10504495 (iScience, 2023).

Tests used:
pan-Kla = settings: cells treated with nicotinamide; cited from earlier work
From the text: (§1) Histone deacetylases (HDACs), including HDACs and Sirtuin family proteins, are well studied PTM erasers that regulate gene transcription. Recently, Moreno-Yruela et al. discovered that class I HDACs (HDAC1-3), especially HDAC3, are effective lactylation erasers.[5] […] The authors also treated cells with HDAC inhibitors (butyrate, trichostatin A, and apicidin) and a Sirtuin pan-inhibitor (nicotinamide) to compare the intracellular delactylation activities between HDACs and Sirtu ...

pan-Kac = settings: cells treated with nicotinamide; cited from earlier work
From the text: as §1

SMILES: NC(=O)c1cccnc1 [nicotinamide]
- pan-Kla level change (pan-Kla): unable to induce Sirtuin-regulated pan-Kla increasement
- pan-Kac level change (pan-Kac): unchanged
